Assay results taken from patent US7534781B2 (DSM IP Assets B.V., priority 2003, dated 2009).

How the values were obtained:
Format in all cases: physicochemical
[1] = Tapped density according to USP 24, method II; settings: trihydrate; for Tap. dens. (dt): USP 24, method II; for db*(1/db − 1/dt)*100%: compressibility index from bulk and tapped density
[2] = Particle size distribution (d10, d50) by laser diffraction, Malvern particle sizer 2600 C; settings: dry powder, f=300 mm, trihydrate
Text: The d10 and d50 are known ways for indicating a particle size distribution, d50 referring to the value for the particle size such that 50 vol. % of the particles has a particle size smaller than said value. The d50 is also referred to as average volume-based grain size. Likewise, d10 refers to the value for the particle size such that 10 vol. % of the particles has a particle size smaller than said value. A preferred way for determining d10 and d50 is laser diffraction, preferably using Malvern equipment. A suitable apparatus for determining d10 and d50 is a Malvern particle sizer 2600 C obtainable from Malvern Instruments Ltd., Malvern UK, for instance using an objective of f=300 mm and a beam length of 14.30 mm. A polydisperse analysis model may advantageously be used.
The particle size distribution (including d10 and d50) of samples from the mixer was determined using a Malvern particle sizer 2600 C with objective f=300 mm, malvern sample measurement unit PS1 and a Malvern dry powder feeder PS 64. The beam length was 14.30 mm. A polydisperse analysis model was used.

[3] = Bulk density according to USP 24, method I; settings: trihydrate
Text: Preferably, the crystalline powder according to the invention has a bulk density higher than 0.46 g/ml, preferably higher than 0.5 g/ml, more preferably higher than 0.55 g/ml. This further improves the flow properties. Moreover, an increased bulk density is advantageous as crystalline powder may be fed into a certain volume, for instance a capsule. There is no specific upper limit for the bulk density. The bulk density may be less than 0.8 g/ml, for instance less than 0.7 g/ml. The bulk density is preferably determined according to USP 24, method I, (page 1913).
The bulk density was determined according to USP 24, method I, (page 1913).

Flow through Klein cup = settings: Klein cup 8 mm; overheads fraction after air jet sieving 75 μm
Description: The powder of example V was subjected to air jet sieving (200 LS-N air jet sieve manufactured by Hosakawa Alpine). Sieving was carried out using a 75 μm screen during 10 minutes. A few agglomerates formed during said sieving were removed from the overheads fraction (not passed through the sieve) tusing a vibrating sieve (425 μm), after which tapped density, bulk density, d50, d10 of the resulting crystals of the overheads fraction was determined.

[4] = Dissolution test of capsules, USP 27 amoxicillin capsules, apparatus 1; settings: 500 mg (anhydrous basis) in gelatine capsule size 0, 900 ml water, 37° C., 100 rpm
Description: In one aspect of the invention, the crystalline powder according to the invention has a high dissolution rate. Preferably, the crystalline powder according to the invention has a T85% of less than 55 minutes, preferably less than 50 minutes, preferably less than 40 minutes, preferably less than 30 minutes, preferably less than 25 minutes, preferably less than 20 minutes. T85% may for instance be above 5 minutes. […] The determination of T85% is preferably carried out under conditions as defined in USP 27, chapter “amoxicillin capsules”, involving the use of apparatus 1 and applying a stirring rate of 100 rpm (USP 27, paragraph 711). Preferably, samples are taken at regular intervals, e.g. each 5 minutes, to determine the quantity of dissolved amoxicillin by UV absorption.
No auxiliaries were added. Dissolution tests were applied using apparatus 1 under the conditions as described in USP 27 under paragraph “amoxicillin capsules”, including a stirring rate of 100 rpm and a temperature of 37° C. Six beakers each containing 900 ml of water were used. Samples were taken each 5 minutes, and the quantity of dissolved amoxicillin were determined employing UV absorption at the wavelength of maximum absorbance at 272 nm. • 84 wt. % of the amoxicillin was dissolved in 15 minutes. • 90 wt. % of the amoxicillin was dissolved in 20 minutes.

SMILES	Tap. dens. (dt) [1]	db*(1/db − 1/dt)*100% [1]	d10 [2]	d50 [2]	Bulk dens. (db) [3]	flow through Klein cup (Flow through Klein cup)	amoxicillin dissolved ([4]; in 15 minutes)	amoxicillin dissolved ([4]; in 20 minutes)
CC1(C)S[C@@H]2[C@H](NC(=O)[C@H](N)c3ccc(O)cc3)C(=O)N2[C@H]1C(=O)O.O.O.O [Ex. III, amoxicillin trihydrate]	0.81 g/mL	31%	9.9 μm	47.8 μm	0.56 g/mL			
CC1(C)S[C@@H]2[C@H](NC(=O)[C@H](N)c3ccc(O)cc3)C(=O)N2[C@H]1C(=O)O.O.O.O [Ex. II, amoxicillin trihydrate]	0.78 g/mL	28%	8.8 μm	42.8 μm	0.56 g/mL			
CC1(C)S[C@@H]2[C@H](NC(=O)[C@H](N)c3ccc(O)cc3)C(=O)N2[C@H]1C(=O)O.O.O.O [Comp. A, amoxicillin trihydrate, reference compound]	0.55 g/mL	53%	4.0 μm	17 μm	0.26 g/mL			
CC1(C)S[C@@H]2[C@H](NC(=O)[C@H](N)c3ccc(O)cc3)C(=O)N2[C@H]1C(=O)O.O.O.O [Ex. I, amoxicillin trihydrate]	0.73 g/mL	30%			0.51 g/mL			

Other lines, results leading:

Tap. dens. (dt) [1]	db*(1/db − 1/dt)*100% [1]	d10 [2]	d50 [2]	Bulk dens. (db) [3]	flow through Klein cup (Flow through Klein cup)	amoxicillin dissolved ([4]; in 15 minutes)	amoxicillin dissolved ([4]; in 20 minutes)	SMILES
0.74 g/mL	20%	36 μm	86 μm	0.59 g/mL	flows through Klein cup 8 mm			CC1(C)S[C@@H]2[C@H](NC(=O)[C@H](N)c3ccc(O)cc3)C(=O)N2[C@H]1C(=O)O.O.O.O [Ex. VI, amoxicillin trihydrate]
0.81 g/mL	33%	7.0 μm	37.0 μm	0.54 g/mL		84 wt. %	90 wt. %	CC1(C)S[C@@H]2[C@H](NC(=O)[C@H](N)c3ccc(O)cc3)C(=O)N2[C@H]1C(=O)O.O.O.O [Ex. IV, amoxicillin trihydrate]
0.79 g/mL	26%	19 μm	61 μm	0.58 g/mL				CC1(C)S[C@@H]2[C@H](NC(=O)[C@H](N)c3ccc(O)cc3)C(=O)N2[C@H]1C(=O)O.O.O.O [Ex. V, amoxicillin trihydrate]
0.47 g/mL	45%			0.26 g/mL				CC1(C)S[C@@H]2[C@H](NC(=O)[C@H](N)c3ccc(O)cc3)C(=O)N2[C@H]1C(=O)O.O.O.O [Ref. B, amoxicillin trihydrate, reference compound]
